The source of these data is PubChem BioAssay (NCI).

Some test systems named below: BT-549 breast; SF-268 CNS; T-47D breast; NCI/ADR-RES ovarian; ACHN renal; 786-0 renal; HS 578T breast; MDA-MB-231 breast; LOX IMVI melanoma; SR leukemia.
Holding throughout (test): NCI tumour cell line growth inhibition, 48 h

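Values below derive from 48-hour exposures of cells grown in 96-well plates, with endpoints linearly interpolated between the two concentrations bracketing the appropriate inhibition level. GI50 = concentration required for 50% inhibition of growth. At the TGI there is no net growth.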

`COc1cc2c(cc1OC(C)C)[C@H](c1ccc(Cl)cc1)N(c1ccc(N(C)CC3CCC(N4CCN(C)C(=O)C4)CC3)cc1)C(=O)C2` (stereo not given in full): the GI50 with BT-549 breast was 2.18 µM; in the experiment on SF-268 CNS it was 3.01 µM; in the experiment with T-47D breast, 2.62 µM; in the experiment with NCI/ADR-RES ovarian, 3.18 µM; with ACHN renal it was 0.32 µM; in the experiment on 786-0 renal, 2.85 µM. Besides, the GI50 in the experiment on HS 578T breast was 3.48 µM; in the experiment with MDA-MB-231 breast, 2.04 µM; with LOX IMVI melanoma, 0.516 µM; in the experiment on SR leukemia, 0.123 µM. The TGI came out at 7.7 µM in the experiment with BT-549 breast; 8.72 µM in the experiment on SF-268 CNS; 11.8 µM with T-47D breast; 14.7 µM with NCI/ADR-RES ovarian; 3.62 µM with ACHN renal; 8.73 µM with 786-0 renal. Also, the TGI with HS 578T breast was determined as 13.1 µM; in the experiment with MDA-MB-231 breast, 4.02 µM; with LOX IMVI melanoma it was 2.19 µM; in the experiment with SR leukemia, 1.97 µM.
For `O=C1N[C@@H]2[C@@H](O)[C@@H](O)[C@H](O)C[C@H]2c2cc3c(c(O)c21)OCCO3`, the GI50 was 0.301 µM in the experiment on BT-549 breast; 0.247 µM in the experiment with SF-268 CNS; 0.176 µM with T-47D breast; 0.629 µM in the experiment on NCI/ADR-RES ovarian; 0.306 µM in the experiment on ACHN renal; 0.293 µM in the experiment on 786-0 renal. For the same molecule, the GI50 with HS 578T breast was 0.27 µM; in the experiment on MDA-MB-231 breast it was 0.236 µM; in the experiment with LOX IMVI melanoma, 0.167 µM; with SR leukemia, 0.245 µM. Besides, the TGI in the experiment on BT-549 breast stood at 1.25 µM; in the experiment with SF-268 CNS, 1.08 µM; with T-47D breast, 1.31 µM; in the experiment on NCI/ADR-RES ovarian, 5.38 µM; in the experiment with ACHN renal, 1.46 µM; with 786-0 renal it was 2.08 µM. In addition, the TGI in the experiment with HS 578T breast is 0.976 µM; in the experiment on MDA-MB-231 breast, 1.07 µM; with LOX IMVI melanoma it was 0.444 µM; in the experiment with SR leukemia, 27.4 µM.
Take `Cc1cnc2n1S(=O)(=O)c1cc(C(=O)Nc3cccc4nsnc34)c(Cl)cc1S2`: the GI50 was > 100 µM with BT-549 breast; 22.5 µM in the experiment with SF-268 CNS; 11.5 µM in the experiment with T-47D breast; 16.2 µM with NCI/ADR-RES ovarian; 27.8 µM in the experiment with ACHN renal; > 100 µM with 786-0 renal. The GI50 is 24.5 µM with HS 578T breast, 12.4 µM in the experiment on MDA-MB-231 breast, 32.9 µM in the experiment on LOX IMVI melanoma and 29.1 µM with SR leukemia. Also, the TGI was > 100 µM in the experiment with BT-549 breast; 55.6 µM in the experiment on SF-268 CNS; 31.9 µM in the experiment with T-47D breast; 34.1 µM in the experiment with NCI/ADR-RES ovarian; 85.5 µM with ACHN renal; > 100 µM with 786-0 renal. Also, the TGI was 63.3 µM with HS 578T breast, 30.3 µM in the experiment on MDA-MB-231 breast, > 100 µM with LOX IMVI melanoma and > 100 µM in the experiment on SR leukemia.
Consider `O=C(O)CCNCC(=O)O`, for which the TGI with BT-549 breast, with SF-268 CNS, with T-47D breast, with NCI/ADR-RES ovarian, in the experiment with ACHN renal and in the experiment with 786-0 renal was > 100 µM each time. For the same molecule, the TGI in the experiment on HS 578T breast, in the experiment with MDA-MB-231 breast, with LOX IMVI melanoma and in the experiment on SR leukemia was > 100 µM throughout.
Take `Cc1c(-c2cnccn2)ssc1=S`: the TGI was 68.5 µM with BT-549 breast; 99 µM with SF-268 CNS; > 100 µM in the experiment with T-47D breast; > 100 µM in the experiment with NCI/ADR-RES ovarian; > 100 µM in the experiment on ACHN renal; > 77.4 µM with 786-0 renal. The TGI is 91.8 µM in the experiment on HS 578T breast, > 100 µM in the experiment with MDA-MB-231 breast, 98.8 µM with LOX IMVI melanoma and > 100 µM in the experiment on SR leukemia.
On to `CC(C)C[C@H](NC(=O)CNC(=O)c1cc(Cl)ccc1Cl)B(O)O`, for which the GI50 in the experiment with BT-549 breast was < 0.0145 µM; in the experiment on SF-268 CNS it was 0.0343 µM; with T-47D breast it was < 0.0156 µM; in the experiment on NCI/ADR-RES ovarian it was 0.183 µM; with ACHN renal it was < 0.0182 µM; in the experiment on 786-0 renal, 0.0278 µM. The GI50 with HS 578T breast is 0.0489 µM; in the experiment on MDA-MB-231 breast, 0.0302 µM; in the experiment on LOX IMVI melanoma it was 0.0224 µM; in the experiment with SR leukemia it was < 0.0152 µM. The TGI with BT-549 breast is 0.137 µM; in the experiment on SF-268 CNS it was 0.22 µM; in the experiment on T-47D breast, 0.0602 µM; in the experiment on NCI/ADR-RES ovarian it was > 100 µM; with ACHN renal, 15.8 µM; with 786-0 renal it was 0.814 µM. In addition, the TGI in the experiment on HS 578T breast was > 50.4 µM; in the experiment on MDA-MB-231 breast, 0.14 µM; in the experiment with LOX IMVI melanoma, 0.0597 µM; in the experiment on SR leukemia, 0.385 µM.
Take `CCOC(=O)C1=CCCC[C@H]1S(=O)(=O)Nc1ccc(F)cc1Cl`: the GI50 with BT-549 breast is 19.6 µM; in the experiment on SF-268 CNS, 24.6 µM; with T-47D breast it was 16.6 µM; with NCI/ADR-RES ovarian, 33.9 µM; in the experiment with ACHN renal, 29 µM; in the experiment with 786-0 renal it was 32.9 µM. Besides, the GI50 with HS 578T breast is 20.3 µM; in the experiment on MDA-MB-231 breast it was 28.4 µM; in the experiment with LOX IMVI melanoma, 22.7 µM; in the experiment with SR leukemia, 23.9 µM. In addition, the TGI with BT-549 breast is 61 µM; with SF-268 CNS, > 100 µM; in the experiment with T-47D breast it was > 100 µM; in the experiment on NCI/ADR-RES ovarian, > 100 µM; in the experiment on ACHN renal, > 100 µM; in the experiment on 786-0 renal, > 100 µM. Moreover, the TGI is 89.3 µM with HS 578T breast, 98.6 µM in the experiment with MDA-MB-231 breast, > 100 µM in the experiment on LOX IMVI melanoma and > 100 µM in the experiment on SR leukemia.
